# Test results reported in patent US10196361B2, “Sodium salt of uric acid transporter inhibitor and crystalline form thereof” (Jiangsu Hengrui Medicine Co., Ltd., priority 2015, dated 2019).
# Assays:
# solubility in water = assay type: physicochemical
# [1] = special stability study of crystal form I (grinding, heating, pressing); assay type: physicochemical
# Text: Crystal form I of the compound of formula (I) prepared according to the method of Example 1 was ground, heated and pressed.
# [2] = pharmacokinetic assay in rats; assay type: in vivo, Sprague-Dawley (SD) rats; settings: for AUC(0-t) / half-life / MRT inf / Cmax: single; for AUC(0-t): read-out: Area under curve AUC0-t; for half-life: read-out: Half life t1/2 (converted); for MRT inf: read-out: Resistance time MRT0-∞; for Cmax: read-out: Plasma concentration Cmax
# Protocol: In the pharmacokinetic assay of the compound of Example 1 of the present invention, Sprague-Dawley (SD) rats were used as test animals. The compound of Example 1 was administrated intragastrically and intravenously to rats, then the drug concentration in the plasma at different time points was determined by a LC/MS/MS method to study the pharmacokinetic behavior and to evaluate the pharmacokinetic characteristics of the compound of the present invention in rats.
# [3] = pharmacokinetic assay in dogs; assay type: in vivo, Beagle dogs; settings: for AUC(0-t) / half-life / MRT inf / Cmax: single; for AUC(0-t): read-out: Area under curve AUC0-t; for half-life: read-out: Half life t1/2 (converted); for MRT inf: read-out: Resistance time MRT0-∞; for Cmax: read-out: Plasma concentration Cmax
# Protocol: In the pharmacokinetic assay of the compound of Example 1 of the present invention, Beagle dogs were used as test animals. The compound of Example 1 was administrated intragastrically and intravenously to dogs, then the drug concentration in the plasma at different time points was determined by a LC/MS/MS method to study the pharmacokinetic behavior and to evaluate the pharmacokinetic characteristics of the compound of the present invention in dogs.
# [4] = stability of crystal form I under lighting, heating and high humidity (purity by HPLC); assay type: physicochemical; settings: for stability: spread flat in the air, lighting, high temperature and high humidity
# Protocol: The sample of crystal form I prepared in Example 1 was spread flat in the air to test its stability under conditions of lighting (4500 Lux), heating (40° C., 60° C.), and high humidity (RH 75%, RH 90%). Samplings were carried out on Day 5 and Day 10.
# [5] = Sprague-Dawley, rat, plasma, intravenous, 3 mg/kg
# [6] = Sprague-Dawley, rat, plasma, po, intragastric, 3 mg/kg
# [7] = Sprague-Dawley, rat, plasma, po, intragastric, 9 mg/kg
# [8] = Sprague-Dawley, rat, plasma, po, intragastric, 27 mg/kg
# [9] = Beagle, dog, plasma, intravenous, 3 mg/kg
# [10] = Beagle, dog, plasma, po, intragastric, 3 mg/kg
# [11] = Beagle, dog, plasma, po, intragastric, 9 mg/kg
# [12] = beagle, dog, plasma, po, intragastric, 27 mg/kg
structure (smiles),measurement,setting,value
"O=C(O)C1(Sc2ccnc3ccc(Br)cc23)CCC1 [1-((6-bromoquinolin-4-yl)thio)cyclobutane-1-carboxylic acid, reference compound]",solubility in water,solubility in water,almost insoluble
"O=C([O-])C1(Sc2ccnc3ccc(Br)cc23)CCC1.[Na+] [Example 1, sodium 1-((6-bromoquinolin-4-yl)thio)cyclobutane-1-carboxylate]",solubility,solubility in water,140 µg/mL
same,DSC peak after treatment,[1]; Grinding treatment for 10 minutes,>300 °C
same,DSC peak after treatment,[1]; Heating treatment for 3 hours at 80° C.,>300 °C
same,DSC peak after treatment,[1]; Pressing treatment,>300 °C
same,stability of the crystal form,"[1]; grinding, heating and pressure",stable
same,oral absorption,[2],well absorbed
same,AUC(0-t),[2]; [5],56000 ± 19600 ng·h/mL
same,half-life,[2]; [5],5.5 ± 1.88 h
same,MRT inf,[2]; [5],6.18 ± 1.33 h
same,AUC(0-t),[2]; [6],41500 ± 27200 ng·h/mL
same,half-life,[2]; [6],4.58 ± 0.85 h
same,Cmax,[2]; [6],10500 ± 7900 ng/mL
same,MRT inf,[2]; [6],6.15 ± 1.51 h
same,AUC(0-t),[2]; [7],119000 ± 65000 ng·h/mL
same,half-life,[2]; [7],5.07 ± 2.08 h
same,Cmax,[2]; [7],22000 ± 11000 ng/mL
same,MRT inf,[2]; [7],7.11 ± 1.75 h
same,AUC(0-t),[2]; [8],336000 ± 241000 ng·h/mL
same,half-life,[2]; [8],4.59 ± 0.5 h
same,Cmax,[2]; [8],38800 ± 17000 ng/mL
same,MRT inf,[2]; [8],7.09 ± 1.33 h
same,bioavailability,"[2]; Sprague-Dawley, rat, plasma, po, single intragastric 3 mg/kg, from mean AUC0-t, read-out: absolute bioavailability",74.1%
same,oral absorption,[3],well absorbed
same,AUC(0-t),[3]; [9],14500 ± 3600 ng·h/mL
same,half-life,[3]; [9],4.51 ± 2.25 h
same,MRT inf,[3]; [9],3.57 ± 1.89 h
same,AUC(0-t),[3]; [10],8630 ± 3440 ng·h/mL
same,half-life,[3]; [10],3.49 ± 1.2 h
same,Cmax,[3]; [10],8450 ± 2100 ng/mL
same,MRT inf,[3]; [10],3.03 ± 1.03 h
same,AUC(0-t),[3]; [11],37500 ± 10800 ng·h/mL
same,half-life,[3]; [11],3.83 ± 2 h
same,Cmax,[3]; [11],27600 ± 4800 ng/mL
same,MRT inf,[3]; [11],3.48 ± 1.36 h
same,AUC(0-t),[3]; [12],105000 ± 30900 ng·h/mL
same,half-life,[3]; [12],4.31 ± 1.6 h
same,Cmax,[3]; [12],78600 ± 22000 ng/mL
same,MRT inf,[3]; [12],3.38 ± 0.96 h
same,bioavailability,"[3]; beagle, dog, plasma, po, single intragastric 3 mg/kg, from mean AUC0-t, read-out: absolute bioavailability",59.5%
same,purity as detected by HPLC,"[4]; 40° C., day 0",99.76%
same,purity as detected by HPLC,"[4]; 40° C., day 5",99.73%
same,purity as detected by HPLC,"[4]; 40° C., day 10",99.73%
same,purity as detected by HPLC,"[4]; 60° C., day 0",99.76%
same,purity as detected by HPLC,"[4]; 60° C., day 5",99.73%
same,purity as detected by HPLC,"[4]; 60° C., day 10",99.71%
same,purity as detected by HPLC,"[4]; Lighting (4500 Lux), day 0",99.76%
same,purity as detected by HPLC,"[4]; Lighting (4500 Lux), day 5",99.75%
same,purity as detected by HPLC,"[4]; Lighting (4500 Lux), day 10",99.70%
same,purity as detected by HPLC,"[4]; RH 75%, day 0",99.76%
same,purity as detected by HPLC,"[4]; RH 75%, day 5",99.74%
same,purity as detected by HPLC,"[4]; RH 75%, day 10",99.74%
same,purity as detected by HPLC,"[4]; RH 90%, day 0",99.76%
same,purity as detected by HPLC,"[4]; RH 90%, day 5",99.74%
same,purity as detected by HPLC,"[4]; RH 90%, day 10",99.73%
same,stability,[4]; listed as crystal form I,good stability
same,stability,[4]; listed as crystal form I of the compound of formula (I),stable
